Test results as given in patent US20250122191A1, “COMPOUNDS AS BCL-2 INHIBITORS” (Fochon Biosciences, Ltd, priority 2021, published 2025).

These compounds were tested on Toledo cells (assay: Cell proliferation assay (MTS), Toledo cells). Details: Homo sapiens, 72 h.
Assay type: cell-based
Protocol: MTS testing kit was purchased from Promega (Madison, WI, USA). The RPMI-1640, Fetal bovine serum and Penicillin-Streptomycin were purchased from BI (Biological Industries, Beit Haemek, Israel). Dimethyl sulfoxide (DMSO) was purchased from Sigma (St. Louis., MO, USA). Toledo (ATCC catalog #: CRL-2631) cells were cultured in RPMI-1640 supplemented with Penicillin-Streptomycin and 10% FBS.
To investigate whether a compound is able to inhibit the activity of BCL-2 in cells, a mechanism-based assay using Toledo lines was developed. In this assay, the inhibition of BCL-2 was reflected by the inhibition of cell proliferation of Toledo cells. Cells were plated into 96-well plates at the optimized cell density of 30000 cells/well. Plates were incubated at 37° C., with 5% CO2 for 4 h. Compounds were serially diluted and added to the plates with the final concentrations of 10000, 3333.3, 1111.1, 370.4, 123.5, 41.2, 13.7, 4.6 and 1.5 nM. Plates were incubated at 37° C., with 5% CO2 for 72 h. 20 μl MTS was added into each well and the plates were incubated at 37° C., with 5% CO2 for exactly 2 h. The absorbance was measured by a microplate reader at 490 nm. IC50 was calculated using GraphPad Prism 5.0 software.

Q: With `CCOc1nc2[nH]cc(F)c2cc1Oc1cc(N2CCC3(CC2)CC(N2CCN(Cc4ccc(OC)cn4)C[C@H]2c2ccccc2C(C)C)C3)ccc1C(=O)NS(=O)(=O)c1cnc(NC[C@H]2CC[C@](C)(O)CC2)c([N+](=O)[O-])c1` [Example 121, 2-((6-ethoxy-3-fluoro-1H-pyrrolo[2,3-b]pyridin-5-yl)oxy)-N-((6-((((1r,4r)-4-hydroxy-4-methylcyclohexyl)methyl)amino)-5-nitropyridin-3-yl)sulfonyl)-4-(2-((R)-2-(2-isopropylphenyl)-4-((5-methoxypyridin-2-yl)methyl)piperazin-1-yl)-7-azaspiro[3.5]nonan-7-yl)benzamide] as the compound, how does the IC50 read?
A: 1 nM

Q: With `CC(C)c1ccccc1[C@@H]1CN(Cc2ccc(OC(F)F)cc2)CCN1C1CC2(CCN(c3ccc(C(=O)NS(=O)(=O)c4cnc(NC[C@H]5CC[C@](C)(O)CC5)c([N+](=O)[O-])c4)c(Oc4cnc5[nH]cc(F)c5c4)c3)CC2)C1` [Example 343, 4-(2-((R)-4-(4-(difluoromethoxy)benzyl)-2-(2-isopropylphenyl)piperazin-1-yl)-7-azaspiro[3.5]nonan-7-yl)-2-((3-fluoro-1H-pyrrolo[2,3-b]pyridin-5-yl)oxy)-N-((6-((((1r,4r)-4-hydroxy-4-methylcyclohexyl)methyl)amino)-5-nitropyridin-3-yl)sulfonyl)benzamide] as the compound, how does the IC50 read?
A: 1 nM

Q: Which IC50 does the source give for `CCOc1nc2[nH]cc(F)c2cc1Oc1cc(N2CCC3(CC2)CC(N2CCN(C(C)C)C[C@H]2c2ccccc2C(C)C)C3)ccc1C(=O)NS(=O)(=O)c1cnc(NC[C@H]2CC[C@](C)(O)CC2)c([N+](=O)[O-])c1` [Example 100, 2-((6-ethoxy-3-fluoro-1H-pyrrolo[2,3-b]pyridin-5-yl)oxy)-N-((6-((((1r,4r)-4-hydroxy-4-methylcyclohexyl)methyl)amino)-5-nitropyridin-3-yl)sulfonyl)-4-(2-((R)-4-isopropyl-2-(2-isopropylphenyl)piperazin-1-yl)-7-azaspiro[3.5]nonan-7-yl)benzamide] here?
A: 1 nM

Q: How did the IC50 turn out when `CCOc1nc2[nH]cc(F)c2cc1Oc1cc(N2CCC3(CC2)CC(N2CCN(Cc4ccncc4)C[C@H]2c2ccccc2C(C)C)C3)ccc1C(=O)NS(=O)(=O)c1cnc(NC[C@H]2CC[C@](C)(O)CC2)c([N+](=O)[O-])c1` [Example 238, 2-((6-ethoxy-3-fluoro-1H-pyrrolo[2,3-b]pyridin-5-yl)oxy)-N-((6-((((1r,4r)-4-hydroxy-4-methylcyclohexyl)methyl)amino)-5-nitropyridin-3-yl)sulfonyl)-4-(2-((R)-2-(2-isopropylphenyl)-4-(pyridin-4-ylmethyl)piperazin-1-yl)-7-azaspiro[3.5]nonan-7-yl)benzamide] was run?
A: 1 nM

The compounds below were run on RS4;11-BCL-2 G101V cells (assay: Cell proliferation assay (MTS), RS4;11-BCL-2 G101V engineered cells). Details: Homo sapiens, 120 h, read-out: RS4, 11 BCL2-G101V IC50.
Assay type: cell-based
Source text: MTS testing kit was purchased from Promega (Madison, WI, USA). The RPMI-1640, Fetal bovine serum and Penicillin-Streptomycin were purchased from BI (Biological Industries, Beit Haemek, Israel). Puromycin was purchased from Beyotime (shanghai, China). Dimethyl sulfoxide (DMSO) was purchased from Sigma (St. Louis., MO, USA). RS4;11-BCL-2 G101V (Cobioer Lot. #: CBD2021063013P4), RS4;11-BCL-2 D103E (Cobioer Lot. #: CBD2021063013P4), RS4;11-BCL-2 D103Y (Cobioer Lot. #: CBD2022012101P4) and RS4;11-BCL-2 F104L (Cobioer Lot. #: CBD2021063014P4) cells were cultured in RPMI1640 supplemented with 1 ug/mL puromycin, 100 U/mL Penicillin-Streptomycin and 10% FBS.
To investigate whether a compound is able to inhibit the activity of BCL-2 mutation in cells, a mechanism-based assay using engineered cell lines stably overexpressing BCL-2 mutation (RS4;11-BCL-2 G101V, RS4;11-BCL-2 D103E, RS4;11-BCL-2 D103Y, and RS4;11-BCL-2 F104L) was developed. In this assay, the inhibition of BCL-2 mutation was reflected by the inhibition of cell proliferation of engineered RS4;11 cells. Cells were plated into 96-well plates at optimized cell density (RS4;11-BCL-2 G101V: 5000 cells/well; RS4;11-BCL-2 D103E: 7500 cells/well; RS4;11-BCL-2 D103Y: 7500 cells/well; RS4;11-BCL-2 F104L: 5000 cells/well). Plates were incubated at 37° C., with 5% CO2 for 4 h (RS4;11-BCL-2 G101V, RS4;11-BCL-2 F104L) and 24 h (RS4;11-BCL-2 D103E, RS4;11-BCL-2 D103Y), respectively. Compounds were serially diluted and added to the plates with the final concentrations of 10000, 3333.3, 1111.1, 370.4, 123.5, 41.2, 13.7, 4.6 and 1.5 nM. Plates were incubated at 37° C., with 5% CO2 for 120 h (RS4; 11-BCL-2 G101V, RS4; 11-BCL-2 F104L) and 72 h (RS4;11-BCL-2 D103E, RS4;11-BCL-2 D103Y), respectively. 20 μl MTS was added into each well and the plates were incubated at 37° C., with 5% CO2 exactly for 2 h. The absorbance was measured by a microplate reader at 490 nm. IC50 values were calculated using GraphPad Prism 8.0 software.

Q: For `COc1ncc(CN2CCN(C3CC4(CCN(c5ccc(C(=O)NS(=O)(=O)c6cnc(NC[C@H]7CC[C@](C)(O)CC7)c([N+](=O)[O-])c6)c(Oc6cc7c(F)c[nH]c7nc6OC)c5)CC4)C3)[C@H](c3ccccc3C(C)C)C2)cn1` [Example 359, 2-((3-fluoro-6-methoxy-1H-pyrrolo[2,3-b]pyridin-5-yl)oxy)-N-((6-((((1r,4r)-4-hydroxy-4-methylcyclohexyl)methyl)amino)-5-nitropyridin-3-yl)sulfonyl)-4-(2-((R)-2-(2-isopropylphenyl)-4-((2-methoxypyrimidin-5-yl)methyl)piperazin-1-yl)-7-azaspiro[3.5]nonan-7-yl)benzamide], which IC50 is on record?
A: 1 nM

Q: Which IC50 does the source give for `CC(C)c1ccccc1[C@@H]1CN(C)CCN1C1CC2(CCN(c3ccc(C(=O)NS(=O)(=O)c4cnc(NC[C@H]5CC[C@](C)(O)CC5)c([N+](=O)[O-])c4)c(Oc4cnc5[nH]cc(F)c5c4)c3)CC2)C1` [Example 139, 2-((3-fluoro-1H-pyrrolo[2,3-b]pyridin-5-yl)oxy)-N-((6-((((1r,4r)-4-hydroxy-4-methylcyclohexyl)methyl)amino)-5-nitropyridin-3-yl)sulfonyl)-4-(2-((R)-2-(2-isopropylphenyl)-4-methylpiperazin-1-yl)-7-azaspiro[3.5]nonan-7-yl)benzamide] here?
A: 1 nM

Q: `COc1ccc(CN2CCN(C3CC4(CCN(c5ccc(C(=O)NS(=O)(=O)c6cnc(NC[C@H]7CC[C@](C)(O)CC7)c([N+](=O)[O-])c6)c(Oc6cc7c(F)c[nH]c7nc6OC)c5)CC4)C3)[C@H](c3ccccc3C3CC3)C2)cc1` [Example 52, 4-(2-((R)-2-(2-cyclopropylphenyl)-4-(4-methoxybenzyl)piperazin-1-yl)-7-azaspiro[3.5]nonan-7-yl)-2-((3-fluoro-6-methoxy-1H-pyrrolo[2,3-b]pyridin-5-yl)oxy)-N-((6-((((1r,4r)-4-hydroxy-4-methylcyclohexyl)methyl)amino)-5-nitropyridin-3-yl)sulfonyl)benzamide] was tested. Which IC50 did it give?
A: 1 nM

Q: Which IC50 does the source give for `CCOc1nc2[nH]cc(F)c2cc1Oc1cc(N2CCC3(CC2)CC(N2CCN(Cc4ccc(OC)cc4F)C[C@H]2c2ccccc2C(C)C)C3)ccc1C(=O)NS(=O)(=O)c1cnc(NC[C@H]2CC[C@](C)(O)CC2)c([N+](=O)[O-])c1` [Example 106, 2-((6-ethoxy-3-fluoro-1H-pyrrolo[2,3-b]pyridin-5-yl)oxy)-4-(2-((R)-4-(2-fluoro-4-methoxybenzyl)-2-(2-isopropylphenyl)piperazin-1-yl)-7-azaspiro[3.5]nonan-7-yl)-N-((6-((((1r,4r)-4-hydroxy-4-methylcyclohexyl)methyl)amino)-5-nitropyridin-3-yl)sulfonyl)benzamide] here?
A: 1 nM

Q: With `COc1ncc(CN2CCN(C3CC4(CCN(c5ccc(C(=O)NS(=O)(=O)c6cnc(NC[C@H]7CC[C@](C)(O)CC7)c([N+](=O)[O-])c6)c(Oc6cnc7[nH]cc(F)c7c6)c5)CC4)C3)[C@H](c3ccccc3C(C)C)C2)cn1` [Example 360, 2-((3-fluoro-1H-pyrrolo[2,3-b]pyridin-5-yl)oxy)-N-((6-((((1r,4r)-4-hydroxy-4-methylcyclohexyl)methyl)amino)-5-nitropyridin-3-yl)sulfonyl)-4-(2-((R)-2-(2-isopropylphenyl)-4-((2-methoxypyrimidin-5-yl)methyl)piperazin-1-yl)-7-azaspiro[3.5]nonan-7-yl)benzamide] as the compound, how does the IC50 read?
A: 1 nM

Q: How did the IC50 turn out when `CC(C)c1ccccc1[C@@H]1CN(C2CCC(O)CC2)CCN1C1CC2(CCN(c3ccc(C(=O)NS(=O)(=O)c4cnc(NC[C@H]5CC[C@](C)(O)CC5)c([N+](=O)[O-])c4)c(Oc4cnc5[nH]cc(F)c5c4)c3)CC2)C1` (stereo partly drawn) [Example 333, 2-((3-fluoro-1H-pyrrolo[2,3-b]pyridin-5-yl)oxy)-N-((6-((((1r,4r)-4-hydroxy-4-methylcyclohexyl)methyl)amino)-5-nitropyridin-3-yl)sulfonyl)-4-(2-((R)-4-(4-hydroxycyclohexyl)-2-(2-isopropylphenyl)piperazin-1-yl)-7-azaspiro [3.5]nonan-7-yl)benzamide] was run?
A: 1 nM

Q: Which IC50 does the source give for `COc1ccc(CN2CCN(C3CC4(CCN(c5ccc(C(=O)NS(=O)(=O)c6cnc(NC[C@H]7CC[C@](C)(O)CC7)c([N+](=O)[O-])c6)c(Oc6cnc7[nH]cc(F)c7c6)c5)CC4)C3)[C@H](c3ccccc3C(C)C)C2)nc1` [Example 256, 2-((3-fluoro-1H-pyrrolo[2,3-b]pyridin-5-yl)oxy)-N-((6-((((1r,4r)-4-hydroxy-4-methylcyclohexyl)methyl)amino)-5-nitropyridin-3-yl)sulfonyl)-4-(2-((R)-2-(2-isopropylphenyl)-4-((5-methoxypyridin-2-yl)methyl)piperazin-1-yl)-7-azaspiro[3.5]nonan-7-yl)benzamide] here?
A: 1 nM
